Common to all, as to format: biochemical
In one assay the target is T1, DDR2 wild-type (Homo sapiens, UniProt Q16832).
T1 construct: either as full-length or enzymatically active fragments; purchased ProQinase GmbH (Freiburg, Germany)
T1 sequence (Q16832 22-855): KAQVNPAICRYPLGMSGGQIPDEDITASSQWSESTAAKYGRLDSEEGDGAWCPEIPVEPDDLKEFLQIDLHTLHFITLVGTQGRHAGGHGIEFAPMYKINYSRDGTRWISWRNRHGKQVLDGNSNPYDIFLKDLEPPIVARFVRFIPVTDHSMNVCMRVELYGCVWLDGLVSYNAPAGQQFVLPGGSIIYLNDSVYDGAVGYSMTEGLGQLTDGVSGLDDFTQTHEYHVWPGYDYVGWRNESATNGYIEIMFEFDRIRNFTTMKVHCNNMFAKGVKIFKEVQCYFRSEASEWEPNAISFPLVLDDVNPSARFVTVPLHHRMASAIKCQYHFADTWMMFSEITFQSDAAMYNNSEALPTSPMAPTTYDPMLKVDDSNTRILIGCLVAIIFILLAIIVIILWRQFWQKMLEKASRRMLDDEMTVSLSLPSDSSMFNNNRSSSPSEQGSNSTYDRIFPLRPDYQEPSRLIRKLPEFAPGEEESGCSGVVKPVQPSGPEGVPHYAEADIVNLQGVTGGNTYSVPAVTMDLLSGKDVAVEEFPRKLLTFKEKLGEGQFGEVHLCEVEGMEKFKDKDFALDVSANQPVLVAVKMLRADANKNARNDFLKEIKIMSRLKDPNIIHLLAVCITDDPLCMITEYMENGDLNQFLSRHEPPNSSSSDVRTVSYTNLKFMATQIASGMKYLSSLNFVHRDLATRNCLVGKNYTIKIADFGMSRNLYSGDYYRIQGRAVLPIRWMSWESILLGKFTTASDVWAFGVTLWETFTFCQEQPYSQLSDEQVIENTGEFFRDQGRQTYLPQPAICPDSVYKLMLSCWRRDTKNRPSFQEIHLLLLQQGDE
Description: Radiometric protein kinase assay (33PanQuinase Activity Assay), DDR2 wild-type. The settings on record: ATP 1.0 μM. The method, then: (§1) A proprietary radiometric protein kinase assay (33PanQuinase® Activity Assay) developed by ProQuinase GmbH (Freiburg, Germany) was used for measuring the kinase activity of selected protein kinases. All assays were performed in FlashPlates™ wells 96 Perkin Elmer (Boston, Mass., USA) in a reaction volume of 50 μl. The reaction mixture was obtained in 4 steps in the following order: • 1. 10 μl of a solution of non-radioactive ATP in water; • 2. 25 μl of assay buffer/[γ-^33P]-ATP mixture • 3. 5 μl of test sample in 10% DMSO • 4. 10 μl of enzyme/substrate mixture
(§2) All protein kinases provided by ProQinase were expressed in Sf9 insect cells or in E. coli as recombinant GST-fusion proteins or His-tagged proteins, either as full-length or enzymatically active fragments. […] Kinases from external vendors (CAR=Carna Biosciences Inc.; INV=Life Technologies (Invitrogen Corporation); MIL=Merck-Millipore (Millipore Corporation), were expressed, purified and quality-controlled by virtue of the vendors readings.
(§3) A stock solution of compound of formula (I) was diluted to 5×10-04M/100% DMSO. […] Incorporation of 33Pi (counting of “cpm”) was determined with a microplate scintillation counter (Microbeta, Wallac). […]
(§4) Based on each 10 corresponding residual activities, IC50 values were calculated using Prism 5.04 for Windows (Graphpad, San Diego, Calif.). […]

The target of a further assay is T2, RET wild-type (Homo sapiens, UniProt P07949).
T2 construct: either as full-length or enzymatically active fragments; purchased ProQinase GmbH (Freiburg, Germany)
T2 sequence (P07949 29-1114): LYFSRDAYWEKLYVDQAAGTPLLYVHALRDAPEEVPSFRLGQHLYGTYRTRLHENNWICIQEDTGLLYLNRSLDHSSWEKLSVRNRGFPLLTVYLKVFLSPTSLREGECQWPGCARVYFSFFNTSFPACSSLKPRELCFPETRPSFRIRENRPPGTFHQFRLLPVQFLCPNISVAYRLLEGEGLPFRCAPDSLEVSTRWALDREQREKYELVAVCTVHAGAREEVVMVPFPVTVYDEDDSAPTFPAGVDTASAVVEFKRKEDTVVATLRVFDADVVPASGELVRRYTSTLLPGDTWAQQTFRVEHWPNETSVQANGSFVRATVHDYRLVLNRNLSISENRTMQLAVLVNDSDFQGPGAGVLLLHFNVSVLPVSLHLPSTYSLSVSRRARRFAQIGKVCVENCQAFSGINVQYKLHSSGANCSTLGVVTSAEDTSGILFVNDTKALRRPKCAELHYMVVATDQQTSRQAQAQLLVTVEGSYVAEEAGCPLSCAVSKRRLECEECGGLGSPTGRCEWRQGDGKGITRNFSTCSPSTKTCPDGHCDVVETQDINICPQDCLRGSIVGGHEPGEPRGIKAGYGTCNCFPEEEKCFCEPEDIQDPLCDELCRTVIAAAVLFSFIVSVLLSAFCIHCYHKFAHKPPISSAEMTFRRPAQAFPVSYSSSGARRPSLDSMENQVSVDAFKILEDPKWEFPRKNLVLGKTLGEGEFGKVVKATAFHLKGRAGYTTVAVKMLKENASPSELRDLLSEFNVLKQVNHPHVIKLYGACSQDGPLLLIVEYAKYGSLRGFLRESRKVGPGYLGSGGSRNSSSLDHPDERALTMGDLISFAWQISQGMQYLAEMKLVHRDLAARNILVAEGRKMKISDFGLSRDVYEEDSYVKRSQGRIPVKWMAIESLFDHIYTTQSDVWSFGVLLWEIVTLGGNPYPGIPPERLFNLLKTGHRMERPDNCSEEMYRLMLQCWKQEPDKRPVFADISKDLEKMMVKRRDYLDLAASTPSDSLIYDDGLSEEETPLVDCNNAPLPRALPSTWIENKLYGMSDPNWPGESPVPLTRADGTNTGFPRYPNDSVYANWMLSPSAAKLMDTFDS
Nature of the assay: Radiometric protein kinase assay (33PanQuinase Activity Assay), RET wild-type. The settings on record: ATP 1.0 μM. How it is done: as §1, §2, §3, §4

A further assay deals with T3, TRK-B (Homo sapiens, UniProt Q16620).
T3 construct: either as full-length or enzymatically active fragments; purchased ProQinase GmbH (Freiburg, Germany)
T3 sequence (Q16620 32-822): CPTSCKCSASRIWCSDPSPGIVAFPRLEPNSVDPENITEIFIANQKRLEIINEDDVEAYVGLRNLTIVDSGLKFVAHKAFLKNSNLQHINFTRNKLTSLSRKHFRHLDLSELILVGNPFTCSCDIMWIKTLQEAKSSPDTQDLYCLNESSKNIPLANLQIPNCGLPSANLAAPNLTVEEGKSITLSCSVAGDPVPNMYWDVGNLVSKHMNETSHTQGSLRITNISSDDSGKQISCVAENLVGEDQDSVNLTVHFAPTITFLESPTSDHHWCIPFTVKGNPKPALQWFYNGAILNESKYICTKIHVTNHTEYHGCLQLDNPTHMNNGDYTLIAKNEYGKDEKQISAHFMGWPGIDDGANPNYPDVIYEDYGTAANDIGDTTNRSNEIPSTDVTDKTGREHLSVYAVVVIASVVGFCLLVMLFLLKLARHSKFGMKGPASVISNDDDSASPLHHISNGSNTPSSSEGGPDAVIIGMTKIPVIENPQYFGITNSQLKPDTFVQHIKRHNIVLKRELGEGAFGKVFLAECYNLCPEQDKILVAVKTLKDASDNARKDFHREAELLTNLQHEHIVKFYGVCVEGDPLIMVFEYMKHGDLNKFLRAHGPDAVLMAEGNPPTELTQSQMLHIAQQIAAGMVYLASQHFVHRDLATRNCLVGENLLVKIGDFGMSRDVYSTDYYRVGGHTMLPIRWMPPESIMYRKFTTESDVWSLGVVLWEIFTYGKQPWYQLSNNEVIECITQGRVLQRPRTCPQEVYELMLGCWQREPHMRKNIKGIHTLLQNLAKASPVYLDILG
Nature of the assay: Radiometric protein kinase assay (33PanQuinase Activity Assay), TRK-B. The settings on record: ATP 0.3 μM. How it is done:
as §1, §2, §3, §4

Structures are written as SMILES.

Experimental findings from patent publication US10336707B2, “Heterocyclic derivatives modulating activity of certain protein kinases” (EUDENDRON S.R.L., priority 2014, dated 2019) are described below.

For orientation: IC50 means the midpoint of a concentration-inhibition curve. The low end stands for greater potency, the high end for weaker potency. For the molecule `CN1CCN(c2ccc(C(=O)Nc3n[nH]c4cc(-c5ccc(O)cc5)c(Cc5cc(F)cc(F)c5)cc34)c(NC3CCOCC3)c2)CC1` [Example 3, N-[5-[(3,5-difluorophenyl)methyl]-6-(4-hydroxyphenyl)-1H-indazol-3-yl]-4-(4-methylpiperazin-1-yl)-2-(tetrahydropyran-4-ylamino)benzamide], the half-inhibitory concentration (IC50) against DDR2 wild-type is 150 nM; against RET wild-type it was 120 nM; against TRK-B it was 88 nM.
